Here are results for two molecules from patent US8445531B2, “Rodenticidal compounds, composition including same and use thereof for controlling harmful rodents” (priority 2010, dated 2013).

Series [1] can be described thus: Liver residue follow-up (remanence) in rats. The series is classed as in vivo. The following applies: rat liver. The protocol: (§1) 3 lots of 5 rats were used for the compound of formula (II), and 2 lots of 4 rats were used for bromadiolone.
(§2) 3 doses of 10 mg/kg of rat were administered intraperitoneally in succession at T0, T24h and T48h.
1 lot of rats was used to carry out a metering of residue of the compound of formula (II) in the liver at T72h, T96h and T120h.
(§3) Doses of 2 mg/kg/day were administered for 4 days.
A metering of bromadiolone residue in the liver at T120h was carried out.

In series [2] the test system is rats. Kind of series: Coagulation time follow-up in rats. The series is classed as in vivo, rat. The protocol: as §1, §2
1 lot of rats was used to follow the coagulation time between 24 hours and 120 hours after the first injection. Actually, the coagulation time is the first parameter that varies and tends toward infinity under the action of an anticoagulant.
as §3
1 lot of rats was used to follow the coagulation time between 24 hours and 120 hours after the first injection.

For series [3], the system named is rats. Kind of series: Mortality follow-up in rats after repeated administration. The series is classed as in vivo, rat.
From the text: The rodenticidal effectiveness and the remanence of the compounds according to the invention have been tested in comparison with the rodenticidal product of reference bromadiolone, with bromadiolone being the least remanent of all of the second-generation anticoagulants currently used in combating rodents.
For this test, the compound of formula (II) that is obtained by implementing the process disclosed above is used.
as §1, §2
1 lot of rats was used to follow the mortality rate brought about by the 3 administrations of the compound of formula (II) according to the invention.
as §3
1 lot of rats was used to determine the mortality rate brought about at T120h.

Setting [4] is: 3 doses of 10 mg/kg intraperitoneally at T0, T24h, T48h, T24 h.
Setting [5] is: 3 doses of 10 mg/kg intraperitoneally at T0, T24h, T48h, T48 h.
The mark [6] stands for this setting: 3 doses of 10 mg/kg intraperitoneally at T0, T24h, T48h, T72 h.

With `O=c1oc2ccccc2c(O)c1C(CC(O)c1ccc(-c2ccc(Br)cc2)cc1)c1ccccc1` (stereo not drawn) [Bromadiolone, bromadiolone], in series [1] (2 mg/kg/day for 4 days, T120 h), the “Liver Residue Follow-Up” value turned out to be 4.2 µg/g. For the same molecule, the “liver residue of bromadiolone relative to compound of formula (II)” value in series [1] (120 hours after the first injection) was 11 times. Also, the “Coagulation Time Follow-Up” value in the series on rats [2] (2 mg/kg/day for 4 days, T0) is on record as “Infinite”; with rats [2] (2 mg/kg/day for 4 days, T24 h), “Infinite”; in the series with rats [2] (2 mg/kg/day for 4 days, T48 h), “Infinite”; in the series on rats [2] (2 mg/kg/day for 4 days, T72 h), “Infinite”; with rats [2] (2 mg/kg/day for 4 days, T96 h), “Infinite”; with rats [2] (2 mg/kg/day for 4 days, T120 h, 2 mg/kg/day), “Infinite”. For the same molecule, the “Coagulation Time Follow-Up” value with rats [2] (2 mg/kg/day for 4 days, T120 h, listed as bromadiolone, 2 mg/kg/day) was “infinite”. For the same molecule, the “Total Mortality” value is reported as 100% with rats [3] (2 mg/kg/day for 4 days, 2 mg/kg/day) and 100% in the series on rats [3] (2 mg/kg/day for 4 days, listed as reference rodenticidal product, 2 mg/kg/day). Also, the “Mortality Follow-Up” value was found to be 2 Deaths in the series on rats [3] (2 mg/kg/day for 4 days, T96 h) and 2 Deaths in the series with rats [3] (2 mg/kg/day for 4 days, T120 h).
In turn, `C/C(=C\Cc1c(O)c2ccccc2oc1=O)CCCC(C)CCCC(C)CCCC(C)C` (stereo not drawn) [Compound According to the Invention, 3-phytyl-4-hydroxy-coumarin] gave a concentration at 72 h in series [1] (ip, 3 doses of 10 mg/kg intraperitoneally at T0, T24h, T48h, T72 h) of 650 ng/g. This molecule also had a concentration at 96 h in series [1] (ip, 3 doses of 10 mg/kg intraperitoneally at T0, T24h, T48h, T96 h) of 510 ng/g. In series [1] (ip, 3 doses of 10 mg/kg intraperitoneally at T0, T24h, T48h, T120 h), this molecule had a concentration at 120 h of 370 ng/g. In addition, the “Coagulation Time Follow-Up” value in the series with rats [2] (3 doses of 10 mg/kg intraperitoneally at T0, T24h, T48h, T0) is “Infinite”; in the series on rats [2] (setting [4]), “Infinite”; in the series with rats [2] (setting [5]) it was “Infinite”; in the series on rats [2] (setting [6]) it was “Infinite”; in the series with rats [2] (3 doses of 10 mg/kg intraperitoneally at T0, T24h, T48h, T96 h), “Infinite”; in the series with rats [2] (3 doses of 10 mg/kg intraperitoneally at T0, T24h, T48h, T120 h) it was 120 s. The “Total Mortality” value with rats [3] (3 doses of 10 mg/kg intraperitoneally at T0, T24h, T48h, 10 mg/kg) is 100%; with rats [3] (3 doses of 10 mg/kg intraperitoneally at T0, T24h, T48h, listed as compounds according to the invention, 10 mg/kg) it was 100%. Also, the entries for the “Mortality Follow-Up” value in the series on rats [3] (setting [4]), with rats [3] (setting [5]) and in the series with rats [3] (setting [6]) were 2 Deaths, 2 Deaths and 1 Death, respectively.
